The values that follow come from paper PMC5282547, “The Proline/Arginine Dipeptide from Hexanucleotide Repeat Expanded C9ORF72 Inhibits the Proteasome” (eNeuro, 2017).

Where no end group is shown, it is not given here.

The test system of data set [1] is Dendra2. Briefly: Optical pulse labeling of Dendra2. The data set is classed as cell-based, rat. The conditions noted are these: 2 µM peptide; vehicle 29.6 h; not significantly different from vehicle. As to the method: Primary spinal neurons were dissected from E15 rat pups and cultured at a density of 2.5 × 10^5 cells/ml on a laminin/poly-lysine-coated 96-well plate in motor neuron media. Four days after plating, neurons were transfected with Lipofectamine 2000 (Invitrogen). DNA-Lipofectamine mixtures were incubated with neurons for 20 min followed by rinsing. Neurons were then placed in 100 µL of conditioned media that was collected immediately prior to transfection and half fresh motor neuron media containing 4 µM PR20, resulting in a final concentration of 2 µM PR20.
Optical pulse labeling experiments were performed using an automated microscopy platform previously described by [Arrasate et al. (2004)] and [Barmada et al. (2014)]. A Nikon Eclipse Ti inverted microscope equipped with a PerfectFocus system, 20× objective lens and an Andor iXon3 897 EMCCD camera were used to acquire images. Samples were illuminated with a Sutter Instruments Lamba XL lamp. The microscope and related components were encased in custom-built plexiglass enclosure set to maintain the temperature at 37°C and CO2 at 5%. Semrock GFP and TRITC filters were used for excitation and detection. A Semrock 405-nm long-pass filter was used for photoactivation. Image acquisition and stage movements were accomplished in an automated fashion using µManager and original code written in BeanShell. For all experiments, photoconversion occurred 24 h following transfection. GFP and TRITC images were acquired immediately following activation and subsequently every 2 h for 12 h. Images were acquired in a similar 12-h window starting 48 h after PR20 treatment. Using in-house image analysis scripts, neuronal cell bodies were identified based on their fluorescent intensity and morphology, and a ROI was drawn around the perimeter of each cell at each time. Single-cell TRITC intensity values were recorded and used to fit a first order exponential decay curve for individual neurons and calculate a Dendra2-light chain 3 (LC3) half-life for each cell. […]

The test system of data set [2] is phosphorylated S6K and 4EBP1. As to the kind of experiment: Immunoblot for mTOR pathway activation. The data set is classed as cell-based, rat. The conditions noted are these: 2 µM, 48 h, immunoblot normalized to actin. As to the method:
(§1) All plates were incubated with PR20 for 48 h.
Once scanning of the nitrocellulose membranes probed for 4EBP1/P-4EBP1 and S6K/P-S6K had been completed, Restore Western Blot Stripping Buffer (Thermo Fisher Scientific) was used to strip the blot of antibodies. The membranes were washed twice in PBS-T for 10 min each and then placed in the stripping buffer for 22 min. The membranes were then washed twice once again in PBS-T for 10 min. They were then placed in blocking solution (5% w/v milk in PBS-T) for 45 min.
For orientation: A western blot detects proteins with antibodies after separation by electrophoresis.

Data set [3] deals with motor neurons. As to the kind of experiment: Motor neuron survival in mixed spinal cord cultures (SMI32 counts), LD50 determination. The format is cell-based, rat. As to the method: Mixed spinal cord neuron cultures were prepared as described previously ([Mojsilovic-Petrovic et al., 2006]). Briefly, an astrocyte feeder layer was prepared from the cortex of newborn Sprague Dawley rat pups [postnatal day 2 (P2)] and grown to ∼80% confluency. Subsequently, dissociated embryonic day 15 (E15) spinal cord neurons were added. One to two days later, AraC ([…]) (catalog #C6645; Sigma) was added for 24 h to arrest astrocyte proliferation. Cultures were maintained in glia-conditioned medium supplemented with the following trophic factors (1.0 ng/ml each): human neurotrophin-3, human neurotrophin-4, human brain-derived neurotrophic factor, and rat ciliary neurotrophic factor (Alomone Labs). Half of the culture medium was replaced on a biweekly basis.
Days in vitro (DIV)14 mixed spinal cord cultures were exposed to PR20 or GR20 by addition of synthetic peptide to the media one time. Cultures were fixed 5 d later with freshly prepared 4% paraformaldehyde for 20 min, washed extensively with 0.1 M PBS, pH 7.4, and immunostained with SMI32 to identify motor neurons. Immunopositive cells >25 µm in diameter are motor neurons based on their costaining for peripherin, ChAT, and islet 1/2 ([Mojsilovic-Petrovic et al., 2006]). Motor neurons were counted in three nonoverlapping, randomly selected fields on a coverslip using a 5[times objective, and the values from a single coverslip averaged. The results of 3-5 independently treated coverslips were the basis and means and variance used in statistical analysis. Each experiment was repeated with independently generated culture 4+ times ([Mojsilovic-Petrovic et al., 2006]).
Motor neuron survival 5 d later was determined. Once the approximate LD50 was determined, we repeated the analysis with more closely spaced concentrations for a more precise definition of the LD50. Determination of the LD50 of MG132 was accomplished in an identical manner.

Data set [4] has as its system ubiquitin-proteasome system. As to the kind of experiment: MG-132 flux assay (flux of ubiquitylated substrates through the UPS). The format is cell-based, rat. As to the method: MG-132 (Sigma) was used to inhibit proteasomal function. Cells were initially treated with PR20 for a total of 48 h using the method outlined in PR20 treatment for biochemical assays. Four hours prior to lysis, these cells were treated with MG-132 or vehicle. The MG-132 was kept in a stock solution in DMSO. This was added directly to culture to achieve a final concentration of 5 μM. Cells were then lysed in RIPA buffer and immunoblotted for ubiquitin.
Ubiquitin analysis requires the use of deubiquitinase (DUB) inhibitors. Lysis without these inhibitors runs the risk of degradation of the substrates to be targeted. As such, N-ethylmaleimide (Sigma), a potent DUB inhibitor, was used in the lysis buffer. […] The remainder of the lysis procedure follows Cell lysis.
To test for group differences in the flux assay, a permutation test was used. This is a nonparametric statistical test that was implemented in MATLAB. […] The test first quantifies this by taking the average of each experimental group and then finding the difference of ratios. It then permutes two samples located in two groups randomly, and determines that difference between averages again. This is repeated 50,000 times, and a histogram is plotted. This histogram represents the distribution of random noise in the sample. Since a higher difference in the +MG132/−MG132 ratio is a more “significant” result, the percentage of the random noise produced from 50,000 permutations that is higher in magnitude than the true difference (calculated from un-permuted data) is the p value.
Permutations of a data point in a +MG132 into a group labeled −MG132 (or vice versa) were not allowed. […] Thus, this group difference was not interesting to us.

In data set [5] the test system is phosphorylated AMPK. As to the kind of experiment: Immunoblot for mitochondrial dysfunction. The data set is classed as cell-based, rat. The conditions noted are these: 2 µM, 48 h, immunoblot normalized to actin. As to the method: as §1
Data set [6] has as its system human proteasomes. As to the kind of experiment: Direct interaction with human proteasomes (streptavidin pull-down, anti-HA immunoblot). The data set is classed as binding. The conditions noted are these: 2 µM HA-tagged peptide, HEK293T extracts with HTBH-tagged β4 subunits, 2 h at 4 °C. As for the experimental part:
Whole-cell extracts from a stable HEK293T cell line harboring HTBH-tagged β4 subunits were prepared as in Han et al. (2014) and incubated with HA-tagged PR20 or GR20 peptides (2 µM) 2 h at 4 °C. The resulting proteasome-dipeptide complexes were pull-downed with streptavidin agarose beads (Millipore) for 3 h at 4 °C. Unbound proteasomes in the supernatants were discarded, and the pellets were mixed with 2× SDS sample buffer. Different amounts of samples were resolved by SDS-PAGE/immunoblotting against HA and a proteasome core particle α3 subunit.

The sequence “PRPRPRPRPRPRPRPRPRPRPRPRPRPRPRPRPRPRPRPRYPYDVPDYA [PR20]” came in with a Dendra2 half-life in data set [1] of 30.5 h. In addition, the “activation level of the mTOR pathway versus vehicle” value in data set [2] was “no statistically significant differences”. The “motor neuron death at the 48-h time point” value in data set [3] (2 µM PR20, 48 h) is “No significant motor neuron death”. The “LD50, death of motor neurons” value in data set [3] (single application to DIV14 mixed spinal cord cultures on astrocyte feeder layer, motor neuron survival 5 d later) is listed as 2.0 µM. Further, the “proteasomal flux versus vehicle after 2 h of exposure” value in data set [4] (2 h PR20, ±MG132, n = 6 per group, p = 0.38) is on record as “no statistically significance”. The “proteasomal flux (difference in ubiquitin +/- MG-132) versus vehicle” value in data set [4] (peptide 48 h (PR20 2 µM), then MG-132 5 µM or vehicle 4 h, permutation test) is reported as “reduced”. Moreover, the “mitochondrial dysfunction (phosphorylated AMPK) versus vehicle” value in data set [5] was “no statistically significant differences”. In addition, the “association with proteasomes in pull-down” value in data set [6] is “associates with proteasomes”.
